Laboratory results taken from patent publication US9346759B2, “Polymorphic crystal forms of 5-(2-{[6-(2,2-difluoro-2-phenylethoxy)hexyl]amino}-1-(R)-hydroxyethyl)-8-hydroxyquinolin-2(1H)-one, heminapadisytlate as agonist of the β2 adrenergic receptor” (ALMIRALL, S.A., priority 2012, dated 2016).

Test: Aerodynamic assessment of fine particles of the inhalation powder composition (modified Anderson Cascade Impactor, Genuair inhaler)
Type: physicochemical
Settings: dry powder blend of the polymorph with lactose carrier, no additive material, ACI 60 L/min, fine particles <5 μm, HPLC
Source text: The process for manufacturing the pharmaceutical composition comprising a polymorphic salt of compound (I) (Type α, Type β or Hydrate) and a carrier is as follows: • 1. 20% by weight of lactose used as a carrier was blended with one polymorph (Type α, Type β or Hydrate). The resulting mixture was sieved and mixed again. • 2. The remaining 80% by weight of lactose was sieved and added to the mixture of Step 1. The whole mixture was blended, sieved and blended again resulting in the final inhalation powder blend.
The test on the aerodynamic assessment of the fine particles (FPD<5 μm) of the inhalation powder composition is carried out in combination with the Genuair® inhaler. The Fine Particle Fraction of the three formulations was calculated on basis of the principles of the aerodynamic assessment of fine particles according to the Current European pharmacopoeia (Ph. Eur. Chapter 2.9.18) and USP<601> by the aid of aerodynamic impactor analyses using a modified Anderson Cascade Impactor (ACI), 60 L/min-configuration including pre-separator, stage-1, -0, and stage 1-7 (filter stage). The content of the active ingredient on each stage of the impactor is determined my means of HPLC.
The fine particle dose (FPD<5 μm) is calculated based on Ph. Eur. Chapter 2.9.18 and USP<601> by point to point interpolation per dosage. […]
To obtain the Fine Particle Dose, the cumulative percent value (y-value) at which the line of data plot crosses 5 μm mark is determined. […] FPD [μg]=yFPD·F/100% • FPD=Fine particle dose<5 μm of the active ingredient per dosage [μg]. • yFPD=y-value of cumulative percentage of mass at a particle size of 5 μm evaluated by linear point to point interpolation [%]. • F=sum of mass on stage-1-stage 7 (filter) per dosage [μg].
The Fine Particle Fraction (FPF) is the percentage of the emitted dose that the Fine Particel Dose represents and is calculated as follows: FPF [%]=(FPD [μg]/Total sum [μg])*100 • Total sum=the amount of drug substance in the respective impactor (Adapter-Filter).

Row | FPF (%) | FPF (%) (hemihydrate) | SMILES
1 | 42.2 |  | O=c1ccc2c([C@@H](O)CNCCCCCCOCC(F)(F)c3ccccc3)ccc(O)c2[nH]1 [Comparative Example, 5-(2-{[6-(2,2-difluoro-2-phenylethoxy)hexyl]amino}-1(R)-hydroxyethyl)-8-hydroxyquinolin-2(1H)-one, heminapadisylate, reference compound]
2 |  | 49.8 | O=c1ccc2c([C@@H](O)CNCCCCCCOCC(F)(F)c3ccccc3)ccc(O)c2[nH]1 [Polymorph Hydrate, 5-(2-{[6-(2,2-difluoro-2-phenylethoxy)hexyl]amino}-1(R)-hydroxyethyl)-8-hydroxyquinolin-2(1H)-one, heminapadisylate, hemihydrate]
3 | 49.3 |  | O=c1ccc2c([C@@H](O)CNCCCCCCOCC(F)(F)c3ccccc3)ccc(O)c2[nH]1 [Polymorph Type β, 5-(2-{[6-(2,2-difluoro-2-phenylethoxy)hexyl]amino}-1(R)-hydroxyethyl)-8-hydroxyquinolin-2(1H)-one, heminapadisylate]
